# Measurements: US7399775B2, “β-amyloid protein production/secretion inhibitor” (Daiichi Pharmaceutical Co., Ltd., priority 2001, dated 2008)
row,SMILES,melting point
1,"O=S(=O)(c1ccc(Cl)cc1)C(CCc1ccc(F)cc1)c1cc(F)ccc1F (stereo not shown) [Example 309, 2-[1-(4-Chlorophenylsulfonyl)-3-(4-fluorophenyl)propyl]-1,4-difluorobenzene]",131 to 132 °C
2,"O=S(=O)(c1ccc(Cl)cc1)C(CCO)c1cc(F)ccc1F (stereo not shown) [Example 207, 3-[(4-Chlorophenyl)sulfonyl]-3-(2,5-difluorophenyl)-1-propanol]",147 to 149 °C
3,"CCCCCC(c1cc(F)ccc1F)S(=O)(=O)c1ccc(Cl)cc1 (stereo not shown) [Example 322, 2-[1-(4-Chlorophenylsulfonyl)hexyl]-1,4-difluorobenzene]",68 to 69 °C
4,"O=S(=O)(c1ccc(Cl)cc1)C1(c2ccccc2CO)CCCCC1 [Example 286, [2-[1-[(4-Chlorophenyl)sulfonyl]cyclohexyl]phenyl]methanol]",148 to 150 °C (dec.)
5,"CS(=O)(=O)CCCCC(c1ccccc1F)S(=O)(=O)c1ccc(Cl)cc1 (stereo not shown) [Example 53, 1-[1-[(4-Chlorophenyl)sulfonyl]-5-(methylsulfonyl)pentyl]-2-fluorobenzene]",167 to 168 °C
6,"O=S(=O)(c1ccc(Cl)cc1)C(CCc1ccccn1)c1cc(F)ccc1F (stereo not shown) [Example 318, 2-[3-(4-chlorophenylsulfonyl)-3-(2,5-difluorophenyl)propyl]pyridine]",129 to 131 °C
7,"O=S(=O)(c1ccc(Cl)cc1)C(c1cc(F)ccc1F)c1cc(Cl)ncc1Cl (stereo not shown) (hydrate or solvate) [Example 345, 2,5-Dichloro-4-[(4-chlorophenylsulfonyl)-(2,5-difluorophenyl)methyl]pyridine 0.5 hydrate]",147 to 148 °C
8,"O=S(=O)(c1ccc(Cl)cc1)C(c1ccc(CN2CCCCC2)cn1)c1cc(F)ccc1F (stereo not shown) [Example 336, 2-[(4-Chlorophenylsulfonyl)-(2,5-difluorophenyl)methyl]-5-(piperidin-1-ylmethyl)pyridine]",113 to 114 °C
9,"CS(=O)(=O)CCCCC(c1cccc(Cl)c1F)S(=O)(=O)c1ccc(Cl)cc1 (stereo not shown) [Example 78, 1-Chloro-3-[1-(4-chlorophenylsulfonyl)-5-(methylsulfonyl)pentyl]-2-fluorobenzene]",131 to 132 °C
10,"O=C(c1ccccn1)N1CCC(c2cc(F)ccc2F)(S(=O)(=O)c2ccc(Cl)cc2)CC1 [Example 266, [4-[(4-Chlorophenyl)sulfonyl]-4-(2,5-difluorophenyl)piperidino](2-pyridyl)methanone]",193 to 196 °C
11,"C=COCCOCCC(c1cc(F)ccc1F)S(=O)(=O)c1ccc(Cl)cc1 (stereo not shown) [Example 34, 2-[1-[(4-Chlorophenyl)sulfonyl]-3-(2-vinyloxyethoxy)propyl]-1,4-difluorobenzene]",55 to 56 °C
12,"O=C(c1ccncc1)N1CCC(c2cc(F)ccc2F)(S(=O)(=O)c2ccc(Cl)cc2)CC1 [Example 264, [4-[(4-Chlorophenyl)sulfonyl]-4-(2,5-difluorophenyl)piperidino](4-pyridyl)methanone]",245 to 248 °C
13,"COC(=O)N1CCC(c2cc(F)ccc2F)(S(=O)(=O)c2ccc(Cl)cc2)CC1 [Example 267, Methyl 4-[(4-chlorophenyl)sulfonyl]-4-(2,5-difluorophenyl)-1-piperidinecarboxylate]",123 to 126 °C
14,"O=S(=O)(c1ccc(Cl)cc1)C1(c2nnnn2Cc2ccccc2)CCCCC1 [Example 195, 1-Benzyl-5-[1-(4-chlorobenzenesulfonyl)cyclohexyl]-1H-tetrazole]",154 to 155 °C
15,"CS(=O)(=O)CCCCC(c1nccs1)S(=O)(=O)c1ccc(Cl)cc1 (stereo not shown) [Example 116, 2-[1-[(4-Chlorophenyl)sulfonyl]-5-(methylsulfonyl)pentyl]thiazole]",118 to 119 °C
16,"CN(C)CCCC(c1ccncc1)S(=O)(=O)c1ccc(Cl)cc1 (stereo not shown) [Example 125, 4-(4-Chlorophenylsulfonyl)-N,N-dimethyl-4-(pyridin-4-yl)butylamine]",78 to 80 °C
17,"Cc1ncsc1CCC(c1cc(F)ccc1F)S(=O)(=O)c1ccc(Cl)cc1 (stereo not shown) [Example 319, 5-[3-(4-Chlorophenylsulfonyl)-3-(2,5-difluorophenyl)propyl]-4-methyl-1,3-thiazole]",183 to 184 °C
18,"O=S(=O)(c1ccc(Cl)cc1)C(CCc1ccccc1)c1cc(F)ccc1F (stereo not shown) [Example 304, 2-[1-(4-Chlorophenylsulfonyl)-3-phenylpropyl]-1,4-difluorobenzene]",111 to 113 °C
19,"O=S(=O)(c1ccc(Cl)cc1)C(CCN1CCCCC1)c1cc(F)ccc1F (stereo not shown) [Example 320, 1-[3-(4-Chlorophenylsulfonyl)-3-(2,5-difluorophenyl)propyl]piperidine]",106 to 107 °C
20,"Cc1ccccc1CCC(c1cc(F)ccc1F)S(=O)(=O)c1ccc(Cl)cc1 (stereo not shown) [Example 305, 2-[1-(4-Chlorophenylsulfonyl)-3-(2-methylphenyl)propyl]-1,4-difluorobenzene]",105 to 106 °C
21,"CCCC(=O)C(c1cc(F)ccc1F)S(=O)(=O)c1ccc(Cl)cc1 (stereo not shown) [Example 7, 1-[(4-Chlorophenyl)sulfonyl]-1-(2,5-difluorophenyl)-2-pentanone]",85.5 to 86 °C
22,"C[S+]([O-])CCCCC(c1ccccc1)S(=O)(=O)c1ccc(Cl)cc1 (stereo not shown) [Example 52, 1-Chloro-4-(5-methylsulfinyl-1-phenylpentyl)sulfonylbenzene]",98.5 to 99.5 °C

row,SMILES,melting point
1,"O=C(CCCCCC(c1cc(F)ccc1F)S(=O)(=O)c1ccc(Cl)cc1)N1CCCC1 (stereo not shown) [Example 206, 7-[(4-Chlorophenyl)sulfonyl]-7-(2,5-difluorophenyl)-1-(1-pyrrolildinyl)-1-heptanone]",106 °C
2,"CC(CCNS(C)(=O)=O)C(c1cc(F)ccc1F)S(=O)(=O)c1ccc(Cl)cc1 (stereo not shown) [Example 244, N-[4-[(4-Chlorophenyl)sulfonyl]-4-(2,5-difluorophenyl)-3-methylbutyl]methanesulfonamide]",163 °C
3,"O=S(=O)(c1ccc(Cl)cc1)C1(c2cnccc2Cl)CCCCC1 [Example 110, 4-Chloro-3-[1-(4-chlorophenylsulfonyl)cyclohexyl]pyridine]",145 to 147 °C
4,"CSCCCCC(c1cc(F)ccc1F)S(=O)(=O)c1ccc(Cl)cc1 (stereo not shown) [Example 26, 2-[1-[(4-Chlorophenyl)sulfonyl]-5-(methylthio)pentyl]-1,4-difluorobenzene]",103 to 106 °C
5,"Cc1ccnc(C(c2cc(F)ccc2F)S(=O)(=O)c2ccc(Cl)cc2)c1 (stereo not shown) [Example 138, 2-[[(4-Chlorophenyl)sulfonyl]-(2,5-difluorophenyl)methyl]-4-methylpyridine]",116 to 117 °C
6,"C=COCCCCC(c1cc(F)ccc1F)S(=O)(=O)c1ccc(Cl)cc1 (stereo not shown) [Example 28, 2-[1-[(4-Chlorophenyl)sulfonyl]-5-vinyloxypentyl]-1,4-difluorobenzene]",54 to 56 °C
7,"O=C1OCCN1CCCC(c1cc(F)ccc1F)S(=O)(=O)c1ccc(Cl)cc1 (stereo not shown) [Example 225, 3-[4-[(4-Chlorophenyl)sulfonyl]-4-(2,5-difluorophenyl)butyl]-2-oxazolidinone]",156 to 159 °C
8,"O=C(OCCC(c1cc(F)ccc1F)S(=O)(=O)c1ccc(Cl)cc1)N1CCCC1 (stereo not shown) [Example 208, 3-[(4-Chlorophenyl)sulfonyl]-3-(2,5-difluorophenyl)propyl=1-pyrrolidinecarboxylate]",109 to 110 °C
9,"O=S(=O)(c1ccc(Cl)cc1)C(c1ccccn1)c1cc(F)ccc1F (stereo not shown) [Example 135, 2-[[(4-Chlorophenyl)sulfonyl]-(2,5-difluorophenyl)methyl]pyridine]",171 to 172 °C
10,"O=S(=O)(c1ccc(Cl)cc1)C(CCSCCO)c1cc(F)ccc1F (stereo not shown) [Example 250, 2-[3-[(4-Chlorophenyl)sulfonyl]-3-(2,5-difluorophenyl)propylthio]ethanol]",108 to 110 °C
11,"CC(C)(C)OC(=O)NCCCC(c1cc(F)ccc1F)S(=O)(=O)c1ccc(Cl)cc1 (stereo not shown) [Example 226, t-Butyl N-[4-[(4-chlorophenyl)sulfonyl]-4-(2,5-difluorophenyl)butyl]carbamate]",119 to 120 °C
12,"O=S(=O)(c1ccc(Cl)cc1)C(CCCCCBr)c1cc(F)ccc1F (stereo not shown) [Example 37, 2-[6-Bromo-1-[(4-chlorophenyl)sulfonyl]hexyl]-1,4-difluorobenzene]",77 to 79 °C
13,"O=S(=O)(c1ccc(Cl)cc1)C(Cc1ccccn1)c1cc(F)ccc1F (stereo not shown) [Example 218, 2-[2-[(4-Chlorophenyl)sulfonyl]-2-(2,5-difluorophenyl)ethyl]pyridine]",105 to 107 °C
14,Cl.NCCCC(c1cc(F)ccc1F)S(=O)(=O)c1ccc(Cl)cc1 (stereo not shown),232 to 233 °C
15,"CN(C)CC(=O)NCc1ccc(C(c2cc(F)ccc2F)S(=O)(=O)c2ccc(Cl)cc2)nc1 (stereo not shown) [Example 359, N-[[6-[(4-Chlorophenylsulfonyl)(2,5-difluorophenyl)methyl]pyridin-3-yl]methyl]-2-dimethylaminoacetamide]",177 to 179 °C
16,"CCC(C)CCC(c1cc(F)ccc1F)S(=O)(=O)c1ccc(Cl)cc1 (stereo not shown) [Example 326, 2-[1-(4-Chlorophenylsulfonyl)-4-methylhexyl]-1,4-difluorobenzene]",56 to 58 °C
17,"O=S(=O)(c1ccc(Cl)cc1)C1(c2cc(F)ccc2F)CC1 [Example 233, 2-[1-[(4-Chlorophenyl)sulfonyl]cyclopropyl]-1,4-difluorobenzene]",177 to 179 °C
18,"O=C(CC(c1cc(F)ccc1F)S(=O)(=O)c1ccc(Cl)cc1)OCc1ccccc1 (stereo not shown) [Example 59, Benzyl 3-(4-chlorophenylsulfonyl)-3-(2,5-difluorophenyl)propionate]",127 to 128 °C
19,"COc1cccnc1C(c1cc(F)ccc1F)S(=O)(=O)c1ccc(Cl)cc1 (stereo not shown) [Example 139, 2-[[(4-Chlorophenyl)sulfonyl]-(2,5-difluorophenyl)methyl]-3-methoxypyridine]",184 to 185 °C
20,"CN(C)S(=O)(=O)N1CCC(c2cc(F)ccc2F)(S(=O)(=O)c2ccc(Cl)cc2)CC1 [Example 270, N,N-Dimethyl-4-[(4-chlorophenyl)sulfonyl]-4-(2,5-difluorophenyl)-1-piperidinesulfonamide]",125 to 129 °C
21,"CC(C)(c1cc(F)ccc1F)S(=O)(=O)c1ccc(Cl)cc1 [Example 232, 2-[1-[(4-Chlorophenyl)sulfonyl]-1-methylethyl]-1,4-difluorobenzene]",147 to 148 °C
